Test results as given in patent US20240050428A1 (Cullgen (Shanghai), Inc., priority 2020, published 2024).
Where two headings read alike, the source gives them in different places.

Legend:
MV4;11 cells = experiment: Cell viability assay (CellTiter-Glo) in MV4;11 cells, alone or with gilteritinib; type: cell-based; conditions: Homo sapiens, MV4;11 cells, three days, CellTiter-Glo, read-out: MV4
MOLM-13 cells = experiment: Cell viability assay (CellTiter-Glo) in MOLM-13 cells, alone or with gilteritinib; type: cell-based; conditions: Homo sapiens, MOLM-13 cells, three days, CellTiter-Glo
[1] = MV4-11, 72 h, compound alone (without gilteritinib), 11 IC50
[2] = MV4-11, 72 h, with gilteritinib 10 nM, 11 IC50 gilteritinib
[3] = MOLM-13, 72 h, compound alone (without gilteritinib), read-out: MOLM-13 IC50
[4] = MOLM-13, 72 h, with gilteritinib 20 nM, read-out: MOLM-13 IC50 gilteritinib
[5] = 72 h, compound alone (without gilteritinib), 11 IC50
[6] = 72 h, with gilteritinib 10 nM, 11 IC50 gilteritinib
[7] = 72 h, compound alone (without gilteritinib), read-out: MOLM-13 IC50
[8] = 72 h, with gilteritinib 20 nM, read-out: MOLM-13 IC50 gilteritinib

Row | Structure (SMILES) | IC50 (MV4;11 cells; [1]) [nM] | IC50 (MV4;11 cells; [2]) [nM] | IC50 (MOLM-13 cells; [3]) [nM] | IC50 (MOLM-13 cells; [4]) [nM] | IC50 (MV4;11 cells; [5]) [nM] | IC50 (MV4;11 cells; [6]) [nM] | IC50 (MOLM-13 cells; [7]) [nM] | IC50 (MOLM-13 cells; [8]) [nM]
1 | O=C1CCC(N2C(=O)c3ccc(NC[C@H]4C[C@H](n5cc(-c6nccc7[nH]ncc67)c(C6CC6)n5)C4)cc3C2=O)C(=O)N1 (stereo partly drawn) [GS-299, 5-(((trans-3-(3-Cyclopropyl-4-(1H-pyrazolo[4,3-c]pyridin-4-yl)-1H-pyrazol-1-yl)cyclobutyl)methyl)amino)-2-(2,6-dioxopiperidin-3-yl)isoindoline-1,3-dione] | < 10 | < 10 | 10 to 100 | < 10 |  |  |  | 
2 | CNc1ccc(-c2cn([C@H]3C[C@H](CNc4ccc5c(c4)C(=O)N(C4CCC(=O)NC4=O)C5=O)C3)nc2C2CC2)nc1 (stereo partly drawn) [GS-301, 5-(((trans-3-(3-Cyclopropyl-4-(5-(methylamino)pyridin-2-yl)-1H-pyrazol-1-yl)cyclobutyl)methyl)amino)-2-(2,6-dioxopiperidin-3-yl)isoindoline-1,3-dione] | > 1000 | 100 to 1000 | > 1000 | 100 to 1000 |  |  |  | 
3 | O=C1CCC(N2C(=O)c3ccc(NC[C@H]4C[C@H](n5cc(-c6ccc(NC7CCNCC7)cn6)c(C6CC6)n5)C4)cc3C2=O)C(=O)N1 (stereo partly drawn) [GS-302, 5-(((trans-3-(3-Cyclopropyl-4-(5-(piperidin-4-ylamino)pyridin-2-yl)-1H-pyrazol-1-yl)cyclobutyl)methyl)amino)-2-(2,6-dioxopiperidin-3-yl)isoindoline-1,3-dione] | > 1000 | > 1000 | > 1000 | > 1000 |  |  |  | 
4 | CN1CCC(Nc2ccc(-c3cn([C@H]4C[C@H](CNc5ccc6c(c5)C(=O)N(C5CCC(=O)NC5=O)C6=O)C4)nc3C3CC3)nc2)CC1 (stereo partly drawn) [GS-303, 5-(((trans-3-(3-Cyclopropyl-4-(5-((1-methylpiperidin-4-yl)amino)pyridin-2-yl)-1H-pyrazol-1-yl)cyclobutyl)methyl)amino)-2-(2,6-dioxopiperidin-3-yl)isoindoline-1,3-dione] | > 1000 | > 1000 | > 1000 | > 1000 |  |  |  | 
5 | O=C1CCC(N2C(=O)c3ccc(NC[C@H]4C[C@H](n5cc(-c6ncccc6NC6CCNCC6)c(C6CC6)n5)C4)cc3C2=O)C(=O)N1 (stereo partly drawn) [GS-304, 5-(((trans-3-(3-Cyclopropyl-4-(3-(piperidin-4-ylamino)pyridin-2-yl)-1H-pyrazol-1-yl)cyclobutyl)methyl)amino)-2-(2,6-dioxopiperidin-3-yl)isoindoline-1,3-dione] | > 1000 | > 1000 | > 1000 | > 1000 |  |  |  | 
6 | Cc1nc(-c2cn([C@H]3C[C@H](CNc4ccc5c(c4)C(=O)N(C4CCC(=O)NC4=O)C5=O)C3)nc2C2CC2)ccc1F (stereo partly drawn) [GS-305, 5-(((trans-3-(3-Cyclopropyl-4-(5-fluoro-6-methylpyridin-2-yl)-1H-pyrazol-1-yl)cyclobutyl)methyl)amino)-2-(2,6-dioxopiperidin-3-yl)isoindoline-1,3-dione] | 10 to 100 | < 10 | 10 to 100 | < 10 |  |  |  | 
7 | CNc1ccnc(-c2cn([C@H]3C[C@H](CNc4ccc5c(c4)C(=O)N(C4CCC(=O)NC4=O)C5=O)C3)nc2C2CC2)c1 (stereo partly drawn) [GS-306, 5-(((trans-3-(3-Cyclopropyl-4-(4-(methylamino)pyridin-2-yl)-1H-pyrazol-1-yl)cyclobutyl)methyl)amino)-2-(2,6-dioxopiperidin-3-yl)isoindoline-1,3-dione] | > 1000 | > 1000 | > 1000 | > 1000 |  |  |  | 
8 | O=C1CCC(N2C(=O)c3ccc(NC[C@H]4C[C@H](n5cc(-c6cc7[nH]cnc7cn6)c(C6CC6)n5)C4)cc3C2=O)C(=O)N1 (stereo partly drawn) [GS-307, 5-(((trans-3-(3-Cyclopropyl-4-(1H-imidazo[4,5-c]pyridin-6-yl)-1H-pyrazol-1-yl)cyclobutyl)methyl)amino)-2-(2,6-dioxopiperidin-3-yl)isoindoline-1,3-dione] | 100 to 1000 | 10 to 100 | 100 to 1000 | 10 to 100 |  |  |  | 
9 | O=C(CCn1cc(-c2cnc3ccccc3n2)c(C2CC2)n1)NCc1ccc2c(c1)C(=O)N(C1CCC(=O)NC1=O)C2=O (stereo not drawn) [GS-312, 3-(3-Cyclopropyl-4-(quinoxalin-2-yl)-1H-pyrazol-1-yl)-N-((2-(2,6-dioxopiperidin-3-yl)-1,3-dioxoisoindolin-5-yl)methyl)propanamide] |  |  |  |  | > 1000 | > 1000 | > 1000 | > 1000
10 | O=C1CCC(N2C(=O)c3ccc(NCCCC(=O)N4CCN(c5ccccn5)CC4)cc3C2=O)C(=O)N1 (stereo not drawn) [GS-318, 2-(2,6-Dioxopiperidin-3-yl)-5-((4-oxo-4-(4-(pyridin-2-yl)piperazin-1-yl)butyl)amino)isoindoline-1,3-dione] |  |  |  |  | 100 to 1000 | 10 to 100 | > 1000 | 10 to 100
11 | O=C1CCC(N2C(=O)c3ccc(NCCCC(=O)N4CCN(c5ccccc5)CC4)cc3C2=O)C(=O)N1 (stereo not drawn) [GS-319, 2-(2,6-Dioxopiperidin-3-yl)-5-((4-oxo-4-(4-phenylpiperazin-1-yl)butyl)amino)isoindoline-1,3-dione] |  |  |  |  | > 1000 | > 1000 | > 1000 | 10 to 100
12 | CN(c1ccccc1)C1CCN(CC(=O)NCCNc2ccc3c(c2)C(=O)N(C2CCC(=O)NC2=O)C3=O)CC1 (stereo not drawn) [GS-320] |  |  |  |  | > 1000 | > 1000 | > 1000 | 100 to 1000

Continued, in another order:

Row | IC50 (MV4;11 cells; [1]) [nM] | IC50 (MV4;11 cells; [2]) [nM] | IC50 (MOLM-13 cells; [3]) [nM] | IC50 (MOLM-13 cells; [4]) [nM] | Structure (SMILES) | IC50 (MV4;11 cells; [5]) [nM] | IC50 (MV4;11 cells; [6]) [nM] | IC50 (MOLM-13 cells; [7]) [nM] | IC50 (MOLM-13 cells; [8]) [nM]
13 | 10 to 100 | < 10 | 10 to 100 | < 10 | O=C1CCC(N2C(=O)c3ccc(NC[C@H]4C[C@H](n5cc(-c6ccc7c(n6)CCCC7)c(C6CC6)n5)C4)cc3C2=O)C(=O)N1 (stereo partly drawn) [GS-308, 5-(((trans-3-(3-Cyclopropyl-4-(5,6,7,8-tetrahydroquinolin-2-yl)-1H-pyrazol-1-yl)cyclobutyl)methyl)amino)-2-(2,6-dioxopiperidin-3-yl)isoindoline-1,3-dione] |  |  |  | 
14 | < 10 | < 10 | < 10 | < 10 | O=C1CCC(N2C(=O)c3ccc(NC[C@H]4C[C@H](n5cc(-c6nccc7nccnc67)c(C6CC6)n5)C4)cc3C2=O)C(=O)N1 (stereo partly drawn) [GS-309, 5-(((trans-3-(3-Cyclopropyl-4-(pyrido[3,4-b]pyrazin-5-yl)-1H-pyrazol-1-yl)cyclobutyl)methyl)amino)-2-(2,6-dioxopiperidin-3-yl)isoindoline-1,3-dione] |  |  |  | 
15 | 10 to 100 | 10 to 100 | 100 to 1000 | 10 to 100 | O=C1CCC(N2C(=O)c3ccc(NC[C@H]4C[C@H](n5cc(-c6nccc7cn[nH]c67)c(C6CC6)n5)C4)cc3C2=O)C(=O)N1 (stereo partly drawn) [GS-310, 5-(((trans-3-(3-Cyclopropyl-4-(1H-pyrazolo[3,4-c]pyridin-7-yl)-1H-pyrazol-1-yl)cyclobutyl)methyl)amino)-2-(2,6-dioxopiperidin-3-yl)isoindoline-1,3-dione] |  |  |  | 
16 | 10 to 100 | < 10 | > 1000 | 10 to 100 | O=C1CCC(N2C(=O)c3ccc(NCCC[C@H]4C[C@H](n5cc(-c6ncccc6Cl)cn5)C4)cc3C2=O)C(=O)N1 (stereo partly drawn) [GS-311, 5-((3-(trans-3-(4-(3-Chloropyridin-2-yl)-1H-pyrazol-1-yl)cyclobutyl)propyl)amino)-2-(2,6-dioxopiperidin-3-yl)isoindoline-1,3-dione] |  |  |  | 
17 | > 1000 | > 1000 | > 1000 | > 1000 | O=C1CCC(N2C(=O)c3ccc(CNCCCn4cc(-c5cnc6ccccc6n5)c(C5CC5)n4)cc3C2=O)C(=O)N1 (stereo not drawn) [GS-313, 5-(((3-(3-Cyclopropyl-4-(quinoxalin-2-yl)-1H-pyrazol-1-yl)propyl)amino)methyl)-2-(2,6-dioxopiperidin-3-yl)isoindoline-1,3-dione] |  |  |  | 
18 | 10 to 100 | < 10 | 10 to 100 | < 10 | CN1CCN(c2ccc3nc(-c4cn([C@H]5C[C@H](CNc6ccc7c(c6)C(=O)N(C6CCC(=O)NC6=O)C7=O)C5)nc4C4CC4)cnc3c2)CC1 (stereo partly drawn) [GS-314, 5-(((trans-3-(3-Cyclopropyl-4-(6-(4-methylpiperazin-1-yl)quinoxalin-2-yl)-1H-pyrazol-1-yl)cyclobutyl)methyl)amino)-2-(2,6-dioxopiperidin-3-yl)isoindoline-1,3-dione] |  |  |  | 
19 | 10 to 100 | < 10 | 100 to 1000 | 10 to 100 | O=C1CCC(N2C(=O)c3ccc(NCCCCCCn4cc(-c5cnc6cccc(Br)c6n5)cn4)cc3C2=O)C(=O)N1 (stereo not drawn) [GS-315, 5-((6-(4-(8-Bromoquinoxalin-2-yl)-1H-pyrazol-1-yl)hexyl)amino)-2-(2,6-dioxopiperidin-3-yl)isoindoline-1,3-dione] |  |  |  | 
20 | > 1000 | > 1000 | > 1000 | 100 to 1000 | O=C(CN1CCC(n2cc(-c3cnc4ccccc4n3)cn2)CC1)NCCCNc1ccc2c(c1)C(=O)N(C1CCC(=O)NC1=O)C2=O (stereo not drawn) [GS-316, N-(3-((2-(2,6-Dioxopiperidin-3-yl)-1,3-dioxoisoindolin-5-yl)amino)propyl)-2-(4-(4-(quinoxalin-2-yl)-1H-pyrazol-1-yl)piperidin-1-yl)acetamide] |  |  |  | 
21 | > 1000 | > 1000 | > 1000 | 100 to 1000 | O=C(CN1CCC(n2cc(-c3ccc4ccccc4n3)cn2)CC1)NCCCNc1ccc2c(c1)C(=O)N(C1CCC(=O)NC1=O)C2=O (stereo not drawn) [GS-317, N-(3-((2-(2,6-Dioxopiperidin-3-yl)-1,3-dioxoisoindolin-5-yl)amino)propyl)-2-(4-(4-(quinolin-2-yl)-1H-pyrazol-1-yl)piperidin-1-yl)acetamide] |  |  |  | 
